Results reported in US20210322443A1 (MAPREG, priority 2015, published 2021).

What was measured:
MAP2 = MAP2 (Homo sapiens, UniProt P11137); assay: Binding by displacement of PREG-3H
[1] = target: purified tubulin and MAP2 (Homo sapiens, UniProt P11137); assay: Increase in optical density at 345 nm of purified tubulin and MAP2 (microtubule polymerization); type: biochemical; details: 37° C., GTP
Protocol: Activity is measured by the increase in optical density at 345 nm of a mixture of purified tubulin and MAP2, incubated at 37° C. in the presence of GTP.

PC12 cells = assay: Stimulation of neuritic sprouting in NGF-differentiated PC12 cells; type: cell-based; details: NGF 10 ng/ml, steroid 30 μM, 3 days, relative to PREG
Protocol: Stimulation of neuritic sprouting is conducted on PC12 cells differentiated in the presence of NGF (10 ng/ml) and the steroid being tested (30 μM) for 3 days. For each condition, the average length of the longest 200 neurites in each cell is measured simultaneously for 3 cultures.

[2] = target: T1, human progesterone receptor(PR) (Homo sapiens, UniProt P06401); assay: Progesterone receptor agonist transactivation (MMTV-luciferase) in transfected HEK293T cells; type: cell-based; details: 24 hours, increasing amounts, FIG. 1
T1 construct: expressed in transfected cells; host or cells: HEK293T
T1 sequence (P06401 1-933): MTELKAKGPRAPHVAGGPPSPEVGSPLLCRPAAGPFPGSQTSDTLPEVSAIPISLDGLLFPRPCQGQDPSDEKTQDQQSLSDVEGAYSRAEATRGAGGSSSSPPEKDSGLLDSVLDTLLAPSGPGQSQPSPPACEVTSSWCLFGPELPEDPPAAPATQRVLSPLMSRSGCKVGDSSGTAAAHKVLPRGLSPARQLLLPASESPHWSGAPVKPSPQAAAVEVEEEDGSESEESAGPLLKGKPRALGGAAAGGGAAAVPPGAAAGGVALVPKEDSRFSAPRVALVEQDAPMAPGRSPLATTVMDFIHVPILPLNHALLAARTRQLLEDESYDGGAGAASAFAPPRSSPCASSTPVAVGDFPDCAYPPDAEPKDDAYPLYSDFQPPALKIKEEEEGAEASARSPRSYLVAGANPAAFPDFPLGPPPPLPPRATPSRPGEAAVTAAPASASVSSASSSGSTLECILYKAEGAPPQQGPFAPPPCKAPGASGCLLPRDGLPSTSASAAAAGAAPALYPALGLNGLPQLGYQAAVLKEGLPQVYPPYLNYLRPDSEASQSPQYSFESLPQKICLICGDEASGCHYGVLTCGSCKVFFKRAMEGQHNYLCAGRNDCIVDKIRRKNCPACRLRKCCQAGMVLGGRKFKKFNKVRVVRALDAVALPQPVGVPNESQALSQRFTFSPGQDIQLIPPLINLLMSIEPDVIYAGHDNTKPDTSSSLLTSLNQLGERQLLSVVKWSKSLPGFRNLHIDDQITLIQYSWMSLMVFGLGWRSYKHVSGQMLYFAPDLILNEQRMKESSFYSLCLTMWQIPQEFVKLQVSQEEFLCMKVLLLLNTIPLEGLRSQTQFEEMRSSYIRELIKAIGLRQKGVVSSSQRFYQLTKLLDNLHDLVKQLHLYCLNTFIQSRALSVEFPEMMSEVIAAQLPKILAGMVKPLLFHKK
Protocol: The main experimental setting used is the following: HEK293T cells were transiently transfected, using calcium phosphate precipitation technology, with expression vectors pSG5hPR (which permits expression of human progesterone receptor(PR)), pFC31-luc (contains the luciferase gene under the control of the MMTV promoter, which is in turn activated by binding of a progestin to progesterone receptor) and pcbetagal (which permits expression of betagalactosidase), and cultured during 24 hours with increasing amounts of various compositions: • 1. […] Test of progesterone receptor […] activity: transfected cells were cultured with progesterone (1 nM) and increasing amounts of RU486 (a well-known progesterone receptor antagonist) or 3-methoxy-pregnenolone. • With this setting, a compound with progesterone receptor antagonist activity competes with progesterone for the occupation of progesterone receptor and results in a progressive loss of transactivation activity when the amount of this compound is increased compared to progesterone.

purified tubulin and MAP2, sequence (P11137 whole entry): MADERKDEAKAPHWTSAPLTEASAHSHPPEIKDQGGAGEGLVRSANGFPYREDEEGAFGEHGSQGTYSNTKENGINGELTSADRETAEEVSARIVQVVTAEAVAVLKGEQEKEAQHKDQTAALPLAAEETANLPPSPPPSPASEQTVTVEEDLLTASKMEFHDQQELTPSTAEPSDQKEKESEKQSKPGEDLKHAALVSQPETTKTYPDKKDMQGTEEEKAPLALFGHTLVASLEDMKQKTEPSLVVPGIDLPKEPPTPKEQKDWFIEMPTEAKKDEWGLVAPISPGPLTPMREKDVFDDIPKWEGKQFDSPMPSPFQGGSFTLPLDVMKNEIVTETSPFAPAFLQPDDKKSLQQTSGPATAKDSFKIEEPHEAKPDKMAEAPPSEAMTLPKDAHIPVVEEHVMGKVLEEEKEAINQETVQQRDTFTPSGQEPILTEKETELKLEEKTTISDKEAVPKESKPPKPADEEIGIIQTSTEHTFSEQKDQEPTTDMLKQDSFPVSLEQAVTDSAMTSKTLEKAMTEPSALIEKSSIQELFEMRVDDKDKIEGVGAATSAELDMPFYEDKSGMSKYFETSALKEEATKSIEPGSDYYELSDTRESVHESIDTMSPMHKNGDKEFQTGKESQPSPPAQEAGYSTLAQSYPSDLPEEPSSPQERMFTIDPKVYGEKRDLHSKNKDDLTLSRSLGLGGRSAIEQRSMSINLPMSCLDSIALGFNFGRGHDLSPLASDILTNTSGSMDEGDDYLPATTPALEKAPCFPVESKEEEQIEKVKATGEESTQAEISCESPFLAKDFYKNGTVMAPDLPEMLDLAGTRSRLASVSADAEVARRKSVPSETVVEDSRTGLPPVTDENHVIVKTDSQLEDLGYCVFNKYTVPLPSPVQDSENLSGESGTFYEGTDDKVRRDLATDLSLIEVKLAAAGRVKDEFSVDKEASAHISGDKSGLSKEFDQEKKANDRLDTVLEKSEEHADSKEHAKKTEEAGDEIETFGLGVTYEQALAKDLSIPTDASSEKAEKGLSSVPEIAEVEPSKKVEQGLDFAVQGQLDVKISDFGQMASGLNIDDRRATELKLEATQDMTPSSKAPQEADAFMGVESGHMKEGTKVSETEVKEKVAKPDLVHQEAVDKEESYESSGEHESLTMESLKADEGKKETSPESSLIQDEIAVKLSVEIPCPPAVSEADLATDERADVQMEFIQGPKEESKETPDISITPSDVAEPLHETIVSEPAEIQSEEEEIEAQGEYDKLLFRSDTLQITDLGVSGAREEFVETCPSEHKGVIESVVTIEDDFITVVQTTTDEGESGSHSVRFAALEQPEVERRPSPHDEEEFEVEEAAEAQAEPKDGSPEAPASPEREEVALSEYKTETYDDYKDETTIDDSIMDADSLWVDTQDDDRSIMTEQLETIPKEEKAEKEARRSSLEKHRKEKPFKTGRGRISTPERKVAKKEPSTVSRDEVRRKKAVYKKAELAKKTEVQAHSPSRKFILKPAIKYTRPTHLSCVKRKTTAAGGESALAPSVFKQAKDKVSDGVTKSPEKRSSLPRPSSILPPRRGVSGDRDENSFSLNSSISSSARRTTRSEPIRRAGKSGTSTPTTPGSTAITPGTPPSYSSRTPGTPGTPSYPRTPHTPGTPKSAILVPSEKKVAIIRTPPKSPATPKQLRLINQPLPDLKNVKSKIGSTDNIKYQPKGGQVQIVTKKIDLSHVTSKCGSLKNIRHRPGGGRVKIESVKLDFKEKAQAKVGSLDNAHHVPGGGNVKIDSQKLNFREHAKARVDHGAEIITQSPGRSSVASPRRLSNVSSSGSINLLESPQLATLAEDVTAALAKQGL
MAP2, sequence (P11137 whole entry): as above

## CO[C@H]1CC[C@@]2(C)C(=CC[C@@H]3[C@@H]2CC[C@@]2(C)[C@H]3CC[C@@]2(C(C)=O)C(Cl)Cl)C1 [3β-methoxy-pregna-5-ene-20-one-17α-dichloromethyl]
MAP2
  Affinity (index of binding, percent of PREG): 53% of PREG
[1]
  Activity (percent of PREG): 113% of PREG

## CO[C@H]1CC[C@@]2(C)[C@@H](CC[C@@H]3[C@@H]2CC[C@]2(C)[C@@H](C(C)=O)CC[C@@H]32)C1 [3B-methoxy-5a-pregnane-20-one, 3β-methoxy-5α-pregnane-20-one]
PC12 cells
  Neuritic sprouting: +++
MAP2
  Affinity (index of binding, percent of PREG): 87% of PREG
[1]
  Activity (percent of PREG): 10% of PREG

## CC(=O)[C@H]1CC[C@H]2[C@@H]3CCC4=CC(=O)CC[C@]4(C)[C@H]3CC[C@]12C [progesterone, reference compound]
[2]
  progesterone receptor agonist activity (transactivation, luciferase expression): permits a transactivation activity leading to the expression of luciferase

## CO[C@H]1CC[C@@]2(C)C(=CC[C@H]3C4=CC[C@H](C(C)=O)[C@@]4(C)CC[C@@H]32)C1 [3B-methoxy-pregna-5,14-diene-20-one]
PC12 cells
  Neuritic sprouting: + (stimulation is lower than)
MAP2
  Affinity (index of binding, percent of PREG): 102% of PREG
[1]
  Activity (percent of PREG): 50% of PREG

## CC(=O)[C@H]1CC[C@H]2[C@@H]3CC=C4C[C@@H](O)CC[C@]4(C)[C@H]3CC[C@]12C [Pregnenolone (PREG), 3β-hydroxypregn-5-en-20-one, reference compound]
MAP2
  Affinity (index of binding, percent of PREG): 100% of PREG
[1]
  Activity (percent of PREG): 100% of PREG

## CO[C@H]1CC[C@@]2(C)C(CCC3C2CC[C@@]2(C)C3CC[C@@H]2[C@@H](C)O)C1 (stereo partly drawn) [3B-methoxy-5a-pregnane-20B-ol, 3β-methoxy-5α-pregnane-20β-ol]
PC12 cells
  Neuritic sprouting: ++ (equal to)
MAP2
  Affinity (index of binding, percent of PREG): 65% of PREG
[1]
  Activity (percent of PREG): 65% of PREG
